Source: patent US12433876B2, “Septin inhibitors for treatment of cancers” (UNIVERSITY OF ROCHESTER, priority 2019, dated 2025)

Experiments:
septin-2 = target: T1, septin-2 (Homo sapiens, UniProt Q15019); test: Immunoblot of septin-2 expression; format: cell-based; details: 48 hours
T1 sequence (Q15019 1-361): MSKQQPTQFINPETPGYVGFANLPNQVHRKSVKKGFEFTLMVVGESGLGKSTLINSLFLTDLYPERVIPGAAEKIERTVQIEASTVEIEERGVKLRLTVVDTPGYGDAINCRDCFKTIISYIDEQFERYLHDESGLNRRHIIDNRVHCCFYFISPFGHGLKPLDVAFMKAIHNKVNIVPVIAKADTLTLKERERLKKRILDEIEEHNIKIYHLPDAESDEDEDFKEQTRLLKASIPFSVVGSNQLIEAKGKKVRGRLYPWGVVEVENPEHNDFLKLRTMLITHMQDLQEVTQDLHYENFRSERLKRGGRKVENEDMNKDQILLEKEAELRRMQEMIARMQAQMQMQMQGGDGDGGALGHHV

septin-9 [1] = test: Immunoblot of septin-9 expression; format: cell-based; details: 48 hours
SKOV-3 xenograft tumors = test: SKOV-3 xenograft tumor growth; format: in vivo, NSG mice
Description: NSG mice 356 were implanted in their left flank with 1 million PANC-1 (HER2+, n=12), JIMT1 (number of animals=10) and SKOV-3 (number of animals=10) cells each in matrigel:media (1:1). […] The vehicle formulation was: 40% Hydroxypropyl-beta-cyclodextrin [Acros Organics] & solutol HS15 (Sigma] in sterile water). 25 mg/kg equivalent of UR214-9 (1 uL=200 ug in DMSO) was dissolved in 600 uL PBS+400 uL of the vehicle and vortexed to obtain a clear suspension.

septin-9 [2] = test: Confocal analysis of septin-9 filament structure; format: cell-based
ECC-1 cells = test: Caspase-3/7 activity apoptosis assay; format: cell-based; details: ECC-1, 33 μM, 48 hours
Description: Cell lines, Culture, and Reagents. Cells were maintained in either DMEM (SKOV-3, KLE, OVCAR-3, OVCAR8-C5 and IGROV-1) or RPMI-1640 (ECC-1 and HCH-1), supplemented with 10% fetal calf serum (or 20% for OVCAR-3), penicillin (100 units/mL), and streptomycin (100 μg/mL) at 37° C. with 5% CO2 in a humidified incubator. Antibodies were purchased from Abcam (septin-2; ab179436) and Cell Signaling Technology; ERK (9102), p-ERK (4370), -actin (3700), u-Tubulin (2144), EGFR (4267) and HER2 (4290). FCF was purchased from Abcam. All other chemicals were from Sigma Aldrich. Synthesis of Derivaties. […] The reaction was monitored using thin-layer chromatography plates with DCM-MeOH or pure ethyl acetate as eluent. Spots were monitored in a UV chamber. […] Quantitative Real-Time PCR. […] Quantitative real-time PCR was conducted using QuantStudio 12 K Flex Real-Time PCR System (ABI) and the Taqman Gene Expression Assay (ABI) consisting of the FAM-labeled probes as follows: SEPT2 (Hs01565417_ml); WFDC2 (Hs00899484_ml); TBP (Hs00427620_ml) or B2M (Hs00187842_ml), which was used as reference for normalization. […] Cell viability, proliferation, and cellular apoptosis were measured using the MTS (Promega), BrdU cell proliferation (Cell Signaling Technology), and Caspase-Glo 3/7 apoptosis detection (Promega) assays, following the respective manufacturer's recommendations with suitable modification. […]

JIMT1 xenograft tumors = test: JIMT1 xenograft tumor growth; format: in vivo, NSG mice; details: 25 mg/kg IP, 28 days
[3] = MDA-MB-231, JIMT-1 and MCF-7 cells, 10 and 30 μM

- septin-2 expression (immunoblot) (septin-2; PANC-1, 1.0 and 10.0 μM): unaffected
Compound: O=C(Nc1cc(Cl)nc(Cl)c1)Nc1cccc(SC(F)(F)F)c1F [UR214-9]
- septin-2 protein expression levels (western blot) (septin-2; [3]): does not alter the protein expression levels
- septin-9 protein expression levels (western blot) (septin-9 [1]; [3]): does not alter the protein expression levels
- septin-9 expression (immunoblot) (septin-9 [1]; PANC-1, 1.0 and 10.0 μM): completely inhibited
- tumor growth during treatment (SKOV-3 xenograft tumors; UR214-9 25 mg/kg, M-F, I.P., trastuzumab 10 mg/kg, M): controlled the growth of tumors
- weight of extracted tumors (SKOV-3 xenograft tumors; day 53 since inoculation): matched the average size seen in vehicle group
- tumor size after treatments were stopped (SKOV-3 xenograft tumors; treatment stopped on day 27): reached the average size in control
- septin-9 filament structures (septin-9 [2]; PANC-1 and JIMT-1 cells): clear disarrangement in septin-9 filament structures
- septin-9 structure (septin-9 [2]; SKOV-3, 1 μM, 48 hours): reorganization of septin-9
- apoptosis (caspase-3/7 activity) (ECC-1 cells): much more effective
- xenograft tumor growth (tumor volume and weight) (JIMT1 xenograft tumors): significant growth control
